The source of these data is patent US20090104335A1, “Healthy Food Product” (priority 2006, published 2009).

This experiment can be described thus: Effect of peptides on incorporation of cholesterol (NBD-cholesterol) into mixed micelles. The settings on record: peptides 1 mg/ml, BA-mix in PBS pH 6.5, micelles without peptide = 100%. As to the method: To form mixed micelles in vitro, 0.1 mM lecithin, 0.05 mM monoolein, 0.1 mM oleic acid and 80 μM cholesterol are mixed in a test tube and dried under a stream of N2. After drying, a 2 mM bile acid mix (BA-mix) in PBS pH 6.5 is added to this lipid mixture. Fluorescent labelled cholesterol (NBD-cholesterol) is used to monitor the incorporation of cholesterol into the mixed micelles.
For testing, peptides (1 mg/ml) are added to the BA-mix and then mixed with lipid-mixtures as described. The whole mixture is vortexed for 15 seconds, followed by an ultrasonic treatment in a waterbath for 30 minutes. From this mixture a sample is taken to measure total NBD-cholesterol concentration. The remaining micelle solution is centrifuged in a table-top ultracentrifuge at 50.000 g for 30 minutes at room temperature.
After centrifugation, samples from the supernatant are taken for the determination of solubilized NBD-cholesterol, which indicates the amount of cholesterol incorporated into mixed micelles. The pellet containing crystallised cholesterol is discarded. NBD-cholesterol is measured at 375/465 nm using a fluorescence plate reader.
Mixed micelle mixtures containing no peptides are used as control (100%). For each example the percentage of incorporated Cholesterol is calculated by dividing the amount of incorporated cholesterol for the tested composition by the amount of incorporated cholesterol in the control sample.

Regarding RRRRRR, the “Incorporated CH (% control = 80 μM cholesterol)” value is, setting by setting: (Table 3, effect of charge) 14.8 % control; (Table 4, effect of length) 10.3 % control.

EAEWEY [reference compound]: where the note is “Table 3, effect of charge”, the “Incorporated CH (% control = 80 μM cholesterol)” value came out at 81.3 % control.

Take RARWRY: the “Incorporated CH (% control = 80 μM cholesterol)” value (Table 3, effect of charge) was 19.3 % control.

As for KKKKKK, the “Incorporated CH (% control = 80 μM cholesterol)” value (Table 3, effect of charge) came to 19.9 % control.

As for DDDDDD [reference compound], the “Incorporated CH (% control = 80 μM cholesterol)” value (Table 3, effect of charge) was determined as 136.8 % control.

In the case of VEWEME [reference compound], the “Incorporated CH (% control = 80 μM cholesterol)” value (Table 3, effect of charge) is 68.4 % control.

In the case of “RRRRRRRR [octa-peptide RRRRRRRR, net charge +8]”, the “Incorporated CH (% control = 80 μM cholesterol)” value (Table 4, effect of length) turned out to be 8.8 % control.

Take RRRR: for the setting “Table 4, effect of length”, the “Incorporated CH (% control = 80 μM cholesterol)” value amounted to 32.8 % control.

On to VRWRMR, for which the “Incorporated CH (% control = 80 μM cholesterol)” value (Table 3, effect of charge) was determined as 26.2 % control.
